pEC50, pIC50: −log10 of the molar value. Values belong to the compound of their own block, whether it stands above or below them. Residues, ends and D or L forms follow the SMILES beside them.
Tests used:
[1] = biological target: T1, Programmed cell death protein 1/Programmed cell death 1 ligand 1 (Homo sapiens, UniProt Q15116+Q9NZQ7); experiment: Inhibition of PD-1/PD-L1 interaction (unknown origin) at 25 uM by AlphaLISA assay relative to control; assay type: protein-complex assay
[2] = biological target: T1, Programmed cell death protein 1/Programmed cell death 1 ligand 1; experiment: Inhibition of PD-1/PD-L1 interaction (unknown origin) by HTRF assay; assay type: protein-complex assay
[3] = biological target: T1, Programmed cell death protein 1/Programmed cell death 1 ligand 1; experiment: Inhibition of biotinylated human PD-I/human PD-L1 interaction at 100 uM incubated for 2 hrs by ELISA relative to control; assay type: protein-complex assay
[4] = Cytotoxicity against human MDA-MB-231 cells assessed as reduction in cell growth by MTT assay; assay type: toxicity, cell-based
[5] = biological target: T1, Programmed cell death protein 1/Programmed cell death 1 ligand 1; experiment: Inhibition of PD-I/PD-L1 interaction (unknown origin) by HTRF assay; assay type: protein-complex assay
[6] = biological target: T1, Programmed cell death protein 1/Programmed cell death 1 ligand 1; experiment: Inhibition of Fc-fused recombinant human PD-I/His-tagged recombinant human PD-L1 interaction incubated overnight by HTRF assay; assay type: protein-complex assay
[7] = biological target: T1, Programmed cell death protein 1/Programmed cell death 1 ligand 1; experiment: Inhibition of PD-I/PD-L1 interaction (unknown origin); assay type: protein-complex assay
B16-F10 [8] = experiment: Antitumor activity against mouse B16-F10 expressing human PD-L1 allografted in C57BL/6 mouse assessed as inhibition of tumor growth at 10 mg/kg, ip administered every 2 days for 24 days relative to control; assay type: functional; conditions: B16-F10, 48 h, time 2 day
B16-F10 [9] = experiment: Antitumor activity against mouse B16-F10 expressing human PD-L1 allografted in C57BL/6 mouse assessed as inhibition of tumor growth at 10 mg/kg, ip administered every 3 days for 24 days relative to control; assay type: functional; conditions: B16-F10, 72 h, time 3 day
[10] = biological target: T1, Programmed cell death protein 1/Programmed cell death 1 ligand 1; experiment: Inhibition of biotinylated human PD-I /His-tagged PD-L1 (unknown origin) interaction incubated for 90 mins in dark condition by AlphaLISA assay; assay type: protein-complex assay
PD1-PDL2 [11] = biological target: T2, PD1-PDL2 (Homo sapiens, UniProt Q15116+Q9BQ51); experiment: Inhibition of PD-I/PD-L2 interaction (unknown origin) expressed in HEK293 cells; assay type: cell-based
T2 sequence (Q15116 whole entry): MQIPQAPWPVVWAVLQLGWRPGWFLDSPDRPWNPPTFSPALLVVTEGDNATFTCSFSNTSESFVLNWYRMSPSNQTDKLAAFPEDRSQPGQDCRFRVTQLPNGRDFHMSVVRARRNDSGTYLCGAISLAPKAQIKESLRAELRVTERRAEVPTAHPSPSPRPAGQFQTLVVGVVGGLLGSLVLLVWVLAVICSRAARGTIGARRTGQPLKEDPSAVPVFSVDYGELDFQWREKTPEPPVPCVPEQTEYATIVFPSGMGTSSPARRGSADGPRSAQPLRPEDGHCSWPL
T2 sequence (Q9BQ51 whole entry): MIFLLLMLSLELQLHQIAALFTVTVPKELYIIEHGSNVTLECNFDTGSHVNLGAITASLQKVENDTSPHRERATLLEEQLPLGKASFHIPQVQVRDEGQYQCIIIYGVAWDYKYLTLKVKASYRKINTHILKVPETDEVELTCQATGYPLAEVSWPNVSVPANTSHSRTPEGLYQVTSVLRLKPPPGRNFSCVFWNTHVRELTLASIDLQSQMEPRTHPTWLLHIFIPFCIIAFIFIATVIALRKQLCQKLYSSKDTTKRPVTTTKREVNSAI

PD1-PDL2 [12] = biological target: T2, PD1-PDL2; experiment: Inhibition of PD-I/PD-L2 interaction (unknown origin) expressed in human […] cells; assay type: cell-based
[13] = biological target: Programmed cell death 1 ligand 1 (Homo sapiens) (UniProt Q9NZQ7); experiment: Induction of PD-L1 degradation in human NCI-H292 at 20 uM relative to control; assay type: cell-based
Sequence of Programmed cell death 1 ligand 1 (Homo sapiens) (Q9NZQ7 whole entry, the tested form may be a part): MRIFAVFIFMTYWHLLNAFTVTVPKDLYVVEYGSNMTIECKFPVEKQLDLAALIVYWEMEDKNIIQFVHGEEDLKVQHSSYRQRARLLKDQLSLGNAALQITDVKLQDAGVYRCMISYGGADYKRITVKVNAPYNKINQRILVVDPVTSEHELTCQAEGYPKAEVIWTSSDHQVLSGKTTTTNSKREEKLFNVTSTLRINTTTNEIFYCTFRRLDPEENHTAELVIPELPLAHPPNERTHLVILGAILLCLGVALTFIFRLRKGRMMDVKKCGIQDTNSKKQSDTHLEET

NCI-H292 = experiment: Cytotoxicity against human NCI-H292 cells assessed as inhibition of cell growth; assay type: functional, cell-based
[14] = Oral bioavailability in mouse; assay type: ADME, organism-based; conditions: in vivo
[15] = biological target: T1, Programmed cell death protein 1/Programmed cell death 1 ligand 1; experiment: Inhibition of PD-I/PD-L1 interaction (unknown origin) by ELISA; assay type: protein-complex assay
[16] = biological target: Programmed cell death 1 ligand 1 (Homo sapiens) (UniProt Q9NZQ7); experiment: Inhibition of human recombinant extracellular domain PD-L1 in human DU-145 cells incubated for 1 hr relative to control; assay type: cell-based; conditions: concentration not given here

T1 sequence (Q15116 whole entry): as the sequence (Q15116 whole entry) above
T1 sequence (Q9NZQ7 whole entry): as the sequence (Q9NZQ7 whole entry, the tested form may be a part) above

Structure (SMILES): Cc1cc(/C=C/c2ccc3cc(N(C)C)ccc3[n+]2C)c(C)n1-c1ccccc1
inhibition [1]: 44.5%
pIC50 [2]: 4.52

Structure (SMILES): O=C(c1cc2ccccc2[nH]1)N1CCN(Cc2csc(-c3ccccc3)n2)CC1
inhibition [3]: 21%

Structure (SMILES): COc1nc(-c2cccc(-c3ccccc3F)c2C)ccc1CNCCC(N)=O
pEC50 [4]: 4.95
pIC50 [5]: 9.05

Structure (SMILES): Cc1c(COc2ccc(CN[C@H](CO)C(=O)O)c(OCc3cccc(C#N)c3)c2)cccc1-c1ccc2c(c1)OCCO2
pIC50 [7]: 8.65

Structure (SMILES): NC(=O)c1ccccc1NC(=O)c1ccc(-c2ccccc2)cc1
inhibition in vivo at 10 mg/kg (B16-F10 [8]): 62%
inhibition in vivo at 10 mg/kg (B16-F10 [9]): 66%

Structure (SMILES): CO[C@H]1/C=C/O[C@@]2(C)Oc3c(C)c(O)c4c(c3C2=O)C2=NC3(CCN(CC(C)C)CC3)NC2=C(NC(=O)/C(C)=C\C=C\[C@H](C)[C@H](O)[C@@H](C)[C@@H](O)[C@@H](C)[C@H](OC(C)=O)[C@@H]1C)C4=O [RIFABUTIN]
pIC50 [10]: 4.60

pEC50 (PD1-PDL2 [11]): 9.14
pEC50 (PD1-PDL2 [12]): 9.39
Structure (SMILES): CC[C@H](C)[C@H](NC(=O)[C@H](CCC(N)=O)NC(=O)[C@H](C)NC(=O)[C@H](CCCCN)NC(=O)[C@@H]1CCCN1C(=O)[C@H](C)NC(=O)[C@H](CC(C)C)NC(=O)[C@H](CCC(N)=O)NC(=O)[C@@H](NC(=O)[C@@H](NC(=O)[C@H](CCCNC(=N)N)NC(=O)[C@H](Cc1ccccc1)NC(=O)[C@H](CCCCNC(=O)[C@H](Cc1ccccc1)NC(=O)[C@H](CO)NC(=O)[C@H](CCC(=O)O)NC(=O)[C@H](CO)NC(=O)[C@@H](NC(=O)[C@H](CC(N)=O)NC(=O)[C@@H](N)CO)[C@@H](C)O)NC(=O)[C@H](Cc1ccccc1)NC(=O)[C@H](CO)NC(=O)[C@H](CCC(=O)O)NC(=O)[C@H](CO)NC(=O)[C@@H](NC(=O)[C@H](CC(N)=O)NC(=O)[C@@H](N)CO)[C@@H](C)O)C(C)C)[C@@H](C)O)C(=O)N[C@@H](CCCCN)C(=O)N[C@@H](CCC(=O)O)C(N)=O

bioavailability [14]: 25%
Structure (SMILES): CC1=C(C(=O)OCc2ccccc2)C(CC(C)(C)C)C(C(=O)OCc2ccccc2)=C(C)N1
Activity [13]: 67%
pIC50 (NCI-H292): 4.21

Structure (SMILES): CSCC[C@H](NC(=O)[C@H](CC(=O)O)NC(=O)[C@H](Cc1ccccc1)NC(=O)[C@H](CCCNC(=N)N)NC(=O)[C@H](Cc1ccc(O)cc1)NC(=O)[C@H](CC(=O)O)NC(=O)[C@H](CCCNC(=N)N)NC(=O)[C@H](Cc1c[nH]c2ccccc12)NC(=O)[C@@H](NC(=O)[C@H](Cc1c[nH]c2ccccc12)NC(=O)[C@@H](N)CCCNC(=N)N)C(C)C)C(=O)NCC(=O)N[C@@H](Cc1ccccc1)C(=O)N[C@@H](CC(=O)O)C(=O)N[C@@H](Cc1c[nH]c2ccccc12)C(=O)N[C@H](C(=O)N[C@@H](Cc1c[nH]c2ccccc12)C(=O)N[C@@H](CCC(=O)O)C(=O)O)C(C)C (H-RWVWRDYRFDMGFDWVWE-OH)
pIC50 [15]: 6.22

Structure (SMILES): CC(C)C[C@H](NC(=O)[C@H](CC(N)=O)NC(=O)[C@H](Cc1c[nH]c2ccccc12)NC(=O)[C@@H](NC(=O)[C@H](Cc1ccc(O)cc1)NC(=O)[C@H](Cc1ccc(O)cc1)NC(=O)[C@H](CO)NC(=O)[C@H](CCCNC(=N)N)NC(=O)[C@H](Cc1c[nH]cn1)NC(=O)[C@@H](N)Cc1c[nH]c2ccccc12)[C@@H](C)O)C(=O)N[C@@H](CC(N)=O)C(=O)N[C@H](C(=O)O)[C@@H](C)O (H-WHRSYYTWNLNT-OH)
inhibition [16]: 80%
